# Test results published in patent US20070037883A1, “Therapeutic compositions” (priority 2003, published 2007).
# Tests used:
# [1] = system: Nox4 mRNA; experiment: Nox4 mRNA expression in cultured mouse VSMCs, real-time PCR; type: cell-based; conditions: 500 nmol/L oligonucleotide, 24 h, FIG. 9
# Description: Mouse VSMCs were plated sparsely onto 96-well ViewPlates (Packard Bioscience) (for superoxide measurements) or onto 35 mm culture dishes (for RNA extraction) such that they were 30-50% confluent at the time of transfection 24 h later. At the time of transfection, cells were washed with serum- and antibiotic free DMEM and were then incubated in serum- and antibiotic-free DMEM containing 8 μL/mL Oligofectamine Transfection Reagent (Invitrogen Life Technologies) complexed with the antisense (0-1000 nmol/L), mismatch (500 nmol/L) or scrambled (560 nmol/L) oligonucleotides. […]
# RNA was extracted from cultured and freshly isolated mouse VSMCs, and from freshly isolated whole aortas using RNAwiz (Ambion) according to the manufacturer's protocol. RNA concentrations were determined spectrophotometrically by measuring absorbance at 260 nm. […]
# Real-time PCR and the ΔΔCt method were used as previously described to examine mRNA expression of Nox4 and Nox1 relative to a “reference” sample. […] 18S ribosomal RNA was used as the internal standard for each reaction and was detected with commercially available rodent 18S primers and a 5′-VIC-labeled probe (PE Biosystems; Table 7).
# Nox4 was amplified in duplex with 18S in PCR mixtures (25 μL final volume) containing 1× TaqMan (registered trademark). […] Reactions were performed and fluorescence monitored in the ABI Prism 7700 Sequence Detector (PE Biosystems).
# [2] = molecular target: T1, gp91phox-containing NADPH-oxidase in the mouse macrophage cell line J774 (Mus musculus, UniProt Q61093); experiment: NADPH oxidase activity in intact J774 mouse macrophages; type: cell-based; conditions: FIG. 2b
# T1 construct: endogenous in cells; host or cells: J774 mouse macrophage cell line (intact cells)
# T1 sequence (Q61093 2-570 limits assumed): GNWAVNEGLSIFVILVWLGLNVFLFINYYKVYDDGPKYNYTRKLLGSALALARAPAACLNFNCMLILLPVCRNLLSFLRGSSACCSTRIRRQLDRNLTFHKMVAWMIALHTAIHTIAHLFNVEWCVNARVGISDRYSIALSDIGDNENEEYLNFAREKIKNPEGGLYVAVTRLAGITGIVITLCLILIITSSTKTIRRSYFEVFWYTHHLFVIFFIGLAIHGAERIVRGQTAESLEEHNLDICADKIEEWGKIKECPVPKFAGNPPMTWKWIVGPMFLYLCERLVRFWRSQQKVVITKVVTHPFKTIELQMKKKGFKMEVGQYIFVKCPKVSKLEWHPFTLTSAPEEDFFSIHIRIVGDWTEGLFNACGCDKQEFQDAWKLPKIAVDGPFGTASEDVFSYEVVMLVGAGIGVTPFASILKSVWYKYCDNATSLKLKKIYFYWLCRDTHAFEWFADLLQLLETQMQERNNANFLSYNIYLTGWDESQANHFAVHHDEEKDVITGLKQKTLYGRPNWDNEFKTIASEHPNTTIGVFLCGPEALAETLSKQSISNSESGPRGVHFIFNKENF
# T1 sequence (Q61462 1-192 partner): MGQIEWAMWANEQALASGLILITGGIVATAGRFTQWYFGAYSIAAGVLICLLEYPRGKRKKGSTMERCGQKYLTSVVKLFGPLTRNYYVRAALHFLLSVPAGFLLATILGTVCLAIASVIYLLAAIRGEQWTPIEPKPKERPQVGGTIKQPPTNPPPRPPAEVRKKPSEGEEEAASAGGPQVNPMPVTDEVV
# [3] = molecular target: endothelial nitric oxide synthase (Homo sapiens, UniProt P29474); conditions: read-out: IC50, inhibition of endothelial nitric oxide synthase; Stuehr et al. 1991; Wang et al. 1993; cited from earlier work
# Chain of endothelial nitric oxide synthase (P29474 2-1203): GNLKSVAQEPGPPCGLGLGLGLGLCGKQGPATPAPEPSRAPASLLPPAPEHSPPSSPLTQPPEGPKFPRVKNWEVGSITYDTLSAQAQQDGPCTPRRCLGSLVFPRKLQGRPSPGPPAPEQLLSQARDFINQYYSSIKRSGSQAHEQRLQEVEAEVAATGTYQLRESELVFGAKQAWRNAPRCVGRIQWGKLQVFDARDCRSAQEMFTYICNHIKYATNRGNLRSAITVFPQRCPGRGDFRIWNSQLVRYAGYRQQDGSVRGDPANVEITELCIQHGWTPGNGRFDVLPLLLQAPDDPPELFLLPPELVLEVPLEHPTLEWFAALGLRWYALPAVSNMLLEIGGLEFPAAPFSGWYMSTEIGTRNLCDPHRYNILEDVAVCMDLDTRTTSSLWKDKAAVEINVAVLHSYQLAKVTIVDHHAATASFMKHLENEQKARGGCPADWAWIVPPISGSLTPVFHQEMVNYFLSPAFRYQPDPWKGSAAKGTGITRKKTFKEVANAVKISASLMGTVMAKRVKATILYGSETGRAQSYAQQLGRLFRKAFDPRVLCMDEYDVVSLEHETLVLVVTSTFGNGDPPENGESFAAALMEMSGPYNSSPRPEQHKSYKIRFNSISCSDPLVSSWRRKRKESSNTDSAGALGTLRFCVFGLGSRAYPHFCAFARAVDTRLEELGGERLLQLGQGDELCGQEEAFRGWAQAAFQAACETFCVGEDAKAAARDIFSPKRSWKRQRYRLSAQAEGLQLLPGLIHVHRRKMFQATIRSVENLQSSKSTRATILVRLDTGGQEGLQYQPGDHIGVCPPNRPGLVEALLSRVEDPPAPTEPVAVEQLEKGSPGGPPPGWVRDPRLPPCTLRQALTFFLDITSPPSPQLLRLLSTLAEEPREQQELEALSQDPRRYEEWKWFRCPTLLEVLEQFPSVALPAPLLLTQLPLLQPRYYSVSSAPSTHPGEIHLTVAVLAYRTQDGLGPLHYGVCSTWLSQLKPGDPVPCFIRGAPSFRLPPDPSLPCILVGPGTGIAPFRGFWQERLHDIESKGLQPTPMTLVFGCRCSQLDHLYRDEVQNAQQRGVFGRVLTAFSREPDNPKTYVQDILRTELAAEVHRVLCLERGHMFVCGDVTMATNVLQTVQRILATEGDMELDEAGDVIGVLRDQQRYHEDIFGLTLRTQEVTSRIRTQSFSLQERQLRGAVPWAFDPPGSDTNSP
compound,measurement,setting,value
"+13/+33 mismatch: mismatch control oligonucleotide TAGGCCAGCAAGCTCCTACA [SEQ ID NO:18], differs in three base positions (chemistry not given here)",reduction in Nox4 mRNA expression,[1],no effect
"+13/+33 scrambled: scrambled control oligonucleotide CGTCACGCTCAGCTCACCGT [SEQ ID NO:19], same base composition in random order (chemistry not given here)",reduction in Nox4 mRNA expression,[1],no effect
"1-amino-4[[4[[4-chloro-6-[[n-sulfophenyl]amino]-1,3,5-triazin-2-yl]amino]-3-sulfophenyl]amino]-9,10-dihydro-9,10-dioxo-2-anthracene-sulfonic acid wherein n is 3 or 4 [Reactive blue-2]",effect on gp91phox-containing NADPH-oxidase in J774 macrophages / phagocytic cells,[2],ineffective
"c1ccc2c(c1)[I+]c1ccccc1-2 [DPI, diphenyleneiodonium]",IC50,[3],180 to 300 nM
